Here are results for five compounds from publication PMC12007285 (Microbial Cell Factories, 2025).

In experiment [1] the test system is RsNpcB (reductase component of two-component p-nitrophenol monooxygenase RsNcpAB). The experiment in a line: NADH/NADPH oxidation at […] nm. It is filed as biochemical, Rhodococcus sp. 21391. The note with it: 50 mM Tris–HCl pH 7.5, 25 °C.
For experiment [2], the target named is p-nitrophenol monooxygenase oxidizing component RsNpcA (Rhodococcus sp. 21391) (UniProt Q6F4M8). Kind of experiment: SEC.

`Cc1cc2nc3c(=O)[nH]c(=O)nc-3n(C[C@H](O)[C@H](O)[C@H](O)COP(=O)(O)OP(=O)(O)OC[C@H]3O[C@@H](n4cnc5c(N)ncnc54)[C@H](O)[C@@H]3O)c2cc1C` [FAD]: in experiment [1] (200 μM NADH, FAD varied 0.2–1.0 μM), the Km was 0.11 ± 0.02 µM.
Regarding `Cc1cc2nc3c(=O)[nH]c(=O)nc-3n(C[C@H](O)[C@H](O)[C@H](O)COP(=O)(O)O)c2cc1C` [FMN], the Km in experiment [1] (200 μM NADH, FMN varied 0.2–1.0 μM) came to 0.02 ± 0.007 µM.
With `NC(=O)C1=CN([C@@H]2O[C@H](COP(=O)(O)OP(=O)(O)OC[C@H]3O[C@@H](n4cnc5c(N)ncnc54)[C@H](O)[C@@H]3O)[C@@H](O)[C@H]2O)C=CC1` [NADH], in experiment [1] (20 μM FAD, NADH varied 20–220 μM), the Km is 45.5 ± 10.8 µM.
On to `NC(=O)C1=CN([C@@H]2O[C@H](COP(=O)(O)OP(=O)(O)OC[C@H]3O[C@@H](n4cnc5c(N)ncnc54)[C@H](OP(=O)(O)O)[C@@H]3O)[C@@H](O)[C@H]2O)C=CC1` [NADPH], for which the Km in experiment [1] (20 μM FAD, NADPH varied 20–220 μM) was 16.4 ± 4.62 µM.
Regarding “p-nitrophenol monooxygenase oxidizing component RsNpcA (from UniProt Q6F4M8 1-528) (enzyme)”, the stoichiometry N in experiment [2] turned out to be 4.
